Results as given in PMC11730078, “Virtual screening and evaluation of bioactive peptides from Haliotis discus hannai as potential HMGCR inhibitors for hyperlipidemia treatment” (Frontiers in Nutrition, 2024).

Legend:
[1] = tested on: HMG-CoA reductase (HMGCR); experiment: HMG-CoA reductase inhibitory activity (HMG-CoA Reductase Assay Kit, Abcam ab204701); assay type: biochemical; conditions: 1 mM peptide, 0.5 mM Atorvastatin as positive control, OD340, 37°C, mean ± SD, three biological replicates, Figure 3B
Description: The HMG-CoA reductase inhibitory activities were determined using the HMG-CoA Reductase Assay Kit (Abcam, ab204701) as previously described ([19]). Enzyme activity was measured by monitoring the decrease in absorbance at 340 nm and 37°C, following the manufacturer’s instructions. The reaction mix consisted of a mixture of HMG-CoA:NADPH:HMG-CoA reductase buffer assay (12:4:174; 190 μL). In a 96-well flat-bottomed microtiter plate, 5 μL of HMG-CoA reductase, 2 μL of inhibitor, and 3 μL of buffer were mixed. The addition of 190 μL of reaction mix marked the initiation of the enzyme reaction. OD340 was measured for 10 min at 2-min intervals at 37°C.
HMGCR inhibition rate (%)=−ΔA340nm/ΔTEnzyme−−ΔA340nm/ΔTEnzyme+Inhubitor/−ΔA340nm/ΔTEnzyme×100.

[2] = Inhibition of cholesterol micelle solubility in vitro; conditions: for Cholesterol micelle solubility inhibition rate: 1 mM peptide, micelles of 10 mM sodium taurocholate, 0.4 mM cholesterol, 1 mM oleic acid, pH 7.4, 37°C, 24 h, mean ± SD, three biological replicates, Figure 3C, SD; for Inhibition of cholesterol micellar solubility, comparison and dose trend: peptide 50, 100, 200, 400 μM, Figure 4D
Description: After sequence identification, the peptide sequences were obtained through solid-phase synthesis by GenScript (Nanjing, China). The inhibitory effect of the peptide on cholesterol micelle solubility was measured as previously described with some modifications ([18]). Micellar solutions (1 mL) contained 10 mM sodium taurocholate, 0.4 mM cholesterol, 1 mM oleic acid, 132 mM NaCl, and 15 mM sodium phosphate (pH 7.4). […] After mixing, the samples were ultrasonically emulsified at 37°C for 30 min and incubated on a shaker at 37°C for 24 h. The samples were centrifuged at 8,000 × g for 20 min, and a total cholesterol (T-CHO) assay kit (Jiancheng Bioengineering Institute, Nanjing, China) was used for measurement. The inhibitory effect of the peptide solution on cholesterol micelle solubility was calculated as follows: (1) Cholesterol micelle solubility inhibition rate() =C0−C1/C0×100 where C0 is the initial cholesterol concentration in the micelles, and C1 is the cholesterol concentration in the micelles after sample addition.

[3] = tested on: high-fat Hep-G2 cells; experiment: TC content in FFAs-induced high-fat Hep-G2 cells; assay type: cell-based; conditions: 24 h; for TC level in high-fat Hep-G2 cells, dose effect: peptide 50, 100, 200, 400 μM with FFAs
Description: Cells grown to the log phase were digested, gently mixed using a pipette, and collected via centrifugation. The cells were then resuspended in a culture medium and homogenized using a pipette. A hemocytometer was used to count the cells diluted to 2 × 10^5/mL using a complete medium. Then, 250 μL of the cell suspension was pipetted into a 48-well cell culture plate for incubation in a CO2 incubator at 37°C for 14–16 h. […] Control groups were performed without peptides or FFAs. The model groups were treated with FFAs only, without peptides. Next, the cells were washed with DPBS and lysed for 45 min on ice using 1.5% Triton-X100. TC, TG, HDL-C, and LDL-C levels were determined using Nanjing Jiancheng assay kits.

[4] = tested on: high-fat Hep-G2 cells; experiment: TG content in FFAs-induced high-fat Hep-G2 cells; assay type: cell-based; conditions: 400 μM peptide with FFAs, 24 h; for TG content in high-fat Hep-G2 cells: mean ± SD, three biological replicates, Figure 4C, SD
Description: Cells grown to the log phase were digested, gently mixed using a pipette, and collected via centrifugation. The cells were then resuspended in a culture medium and homogenized using a pipette. A hemocytometer was used to count the cells diluted to 2 × 10^5/mL using a complete medium. Then, 250 μL of the cell suspension was pipetted into a 48-well cell culture plate for incubation in a CO2 incubator at 37°C for 14–16 h. After reaching 80–90% confluency, cells were incubated with peptides (50, 100, 200, or 400 μM) and FFAs (10% oleic acid and palmitic acid) for 24 h. Control groups were performed without peptides or FFAs. The model groups were treated with FFAs only, without peptides. Next, the cells were washed with DPBS and lysed for 45 min on ice using 1.5% Triton-X100. TC, TG, HDL-C, and LDL-C levels were determined using Nanjing Jiancheng assay kits.

Substance: APDMAFPR
- HMGCR inhibition rate [1]: 59.55% ± 0.46
- Cholesterol micelle solubility inhibition rate [2]: 35.87% ± 2.56
- Inhibition of cholesterol micellar solubility, comparison and dose trend [2]: weakest inhibitory effect
- TC level in high-fat Hep-G2 cells, dose effect ([3]; Figure 4B): not significant
- Decrease of TG content compared with model group [4]: 34.86% ± 0.08
- TG content in high-fat Hep-G2 cells [4]: 0.31 ± 0.04 mmol/gprot

Substance: DYPRPW
- HMGCR inhibition rate [1]: 51.81% ± 0.70
- Cholesterol micelle solubility inhibition rate [2]: 37.29% ± 1.45
- Inhibition of cholesterol micellar solubility, comparison and dose trend [2]: superior inhibition rate
- TC level in high-fat Hep-G2 cells compared with model group ([3]; 400 μM peptide with FFAs, Figure 4B): significantly lower than that in the model group
- TC level in high-fat Hep-G2 cells, dose effect ([3]; Figure 4B): the higher the concentration, the lower the TC level

Substance: LPAYPMP
- HMGCR inhibition rate [1]: 54.65% ± 0.36
- Cholesterol micelle solubility inhibition rate [2]: 41.55% ± 5.48
- Inhibition of cholesterol micellar solubility, comparison and dose trend [2]: showed inhibition of cholesterol micellar solubility
- TC level in high-fat Hep-G2 cells, dose effect ([3]; Figure 4B): not significant

Substance: QDAVMPNPF
- Cholesterol micelle solubility inhibition rate [2]: 47.94% ± 0.58
- Inhibition of cholesterol micellar solubility, comparison and dose trend [2]: showed inhibition of cholesterol micellar solubility
- TC level in high-fat Hep-G2 cells, dose effect ([3]; Figure 4B): not significant
- Decrease of TG content compared with model group [4]: 31.31% ± 0.10
- TG content in high-fat Hep-G2 cells [4]: 0.33 ± 0.05 mmol/gprot

Substance: SPADIGFH [abalone viscera peptide, top 20 after virtual screening, synthesized by GenScript]
- HMGCR inhibition rate [1]: 53.89% ± 3.89
- Cholesterol micelle solubility inhibition rate [2]: 45.23% ± 3.68

Substance: WFKTM [abalone viscera peptide, top 20 after virtual screening, synthesized by GenScript]
- TC accumulation in high-fat Hep-G2 cells compared with model group ([3]; peptide 1 mM with FFAs, Figure 3A): all peptides, except for WFKTM, alleviated TC accumulation
